The text below walks through data of patent publication US10562922B2, “Silicon based cyclic compounds and pharmaceutical compositions for treating malaria and toxoplasmosis” (Council of Scientific and Industrial Research, priority 2016, dated 2020).

Test [1] has as its system Plasmodium falciparum (3D7). In words: Anti-malarial screening (SybrGreen parasite growth assay). The test is classed as cell-based. The settings on record: for inhibition at 10 µM: read-out: % inhibition (P. falciparum). Here is the method: a) Anti-malarial Screening:
Plasmodium falciparum (3D7; Malaria Research and Reference Reagent Resource Center ID NO: MRA-102) is cultured in the laboratory as per standard protocols [Moll K., Ljungström I., Perlmann H., Scherf A., and Wahlgren M., (Editors). Methods in Malaria Research. Joint publication by Malaria Research and Reference Reagent Resource Center (MR4), ATCC, USA and BioMalPar, EU. 2008]. Briefly, P. falciparum is cultured using 2% hematocrit washed RBCs, separated from freshly collected human blood, in RPMI media containing glutamine, sodium bicarbonate and antibiotics. Parasites are routinely synchronized using 5% sorbitol treatment. Anti-malarial screens are carried out in two stages: 1) a primary screen at a fixed concentration of 10 μM to find out % inhibition of growth; and 2) a dose assay for finding out the IC50 for hits identified from the primary screen. Assays are setup as follows. 200 μls of the diluted parasite culture (2% parasitemia and 2% hematocrit; at late ring stage), is added to each well in a 96 well plate pre-seeded with the compound of interest at the required concentration of 10 μM. The master stocks and dilutions of the compounds are prepared in cell culture grade DMSO. NOTE: DMSO only treatment control is done and the results are used for normalizing the data obtained from compound treatment. All compounds are plated in triplicates. Each 96 well plate also includes negative controls (compound untreated culture) and positive controls (standard anti-malarial treated culture). Standard anti-malarials used are chloroquine, artemisinine and atovaquone, each at 1 μM concentration. After plating, the culture is incubated in standard growth condition for 60 hours, after which the cultures are processed for testing the effect of compounds on parasite growth using SybrGreen staining and fluorescence measurements at […] emmission following excitation at 498 nm. Since only parasites have DNA (as RBCs are devoid of nucleus), the SybrGreen signal is a direct indictor of parasitemia in respective samples. Results are used to quantifying relative parasite growth (or conversely % inhibition of growth) in untreated, standard anti-malarial treated and test molecule treated P. falciparum cultures. […] Data from the preliminary screen (@ 10 μM only) along with data from the dose response experiment and IC50 values for the selected molecules are tabulated in Table-2.

Another test relates to T. gondii. Put plainly: Anti-toxoplasma screening (TgLuc+ luciferase growth assay in HFF host cells). The test is classed as cell-based, Toxoplasma gondii. From the text: b) Anti-toxoplasma Screening:
For screening bioactivity of test molecules against T. gondii, a transgenic line of the parasite (TgLuc+) expressing the luciferase gene is used [Edwin Kamau, Tracy Meehan, Mark D. Lavine, Gustavo Arrizabalaga, Gabriela Mustata Wilson and Jon Boyle. A Novel Benzodioxole-Containing Inhibitor of Toxoplasmagondii Growth Alters the Parasite Cell Cycle. Antimicrob Agents Chemother. 2011, 55(12): 5438-5451]. The parental parasite used to generate the TgLuc+ strain is aType I (RH) virulent strain (ATCC reference 50174D), which can also be used for in vivo studies in mice, if needed. The tachyzoite stage of the parasites are routinely cultured in the laboratory using standard protocols [Roos D S, Donald R G, Morrissette N S, Moulton A L. Molecular tools for genetic dissection of the protozoan parasite Toxoplasma gondii. Methods Cell Biol. 1994, 45:27-63]. In brief, a confluent monolayer of Human Foreskin Fibroblast (HFF; ATCC reference SCRS-1041) cells in culture are used as the host cells for infection with tachyzoitestage T. gondii. The culture media used to grow parasites is standard complete DMEM (Gibco BRL, USA) containing glucose (5.5 mM), glutamine (2 mM), Hepes (25 mM) and 1% dialyzed bovine fetal calf serum (Gibco BRL, USA). For bioactivity assays, the HFF cells are grown in 96 well plates and each well is infected with 1×10^4TgLuc+parasitesin the presence of 10 μM test molecules (in primary screens) in a total volume of 200 μL. After 2 days of incubation and growth in a 37° C. incubator maintaining 5% CO2, the 96 well plates are processed for luminescence measurements using the reagents in the luciferase assay kit (Promega, USA). The results are corrected for background (uninfected HFF cultures), and normalized against both positive (untreated parasite cultures) and negative (standard drug treated parasite cultures) to identify those molecules with % inhibition values >80% for further dose analysis and IC50 determination using a dilution series ranging from 10 μM to 1 nM. Data from the preliminary screen (@ 10 μM only) is shown in Table-1 and dose response experiments are underway.

Setting [2] is: dose response, dilution series 10 μM to 1 nM, 3D7, read-out: IC50(P. falciparum).
Setting [3] is: primary screen at 10 μM, 3D7, 60 hours incubation.
The mark [4] stands for this setting: primary screen at 10 μM, TgLuc+ tachyzoites in HFF cells, 2 days incubation.
Setting [5] is: Plasmodium falciparum, 3D7, dose response, dilution series 10 μM to 1 nM, 3D7, read-out: IC50(P. falciparum).
Setting [6] is: Plasmodium falciparum, primary screen at 10 μM, 3D7, 60 hours incubation.
Setting [7] is: Toxoplasma gondii, 48 h; primary screen at 10 μM, TgLuc+ tachyzoites in HFF cells, 2 days incubation.
The mark [8] stands for this setting: Plasmodium falciparum, 3D7, 60 h.
Where [9] appears, read: Plasmodium falciparum, 3D7, read-out: IC50(P. falciparum, μM), dose response, dilution series 10 μM to 1 nM, 3D7.

Where “and” joins values, the source holds several entries; their conditions need not be identical. Identical values can stand only once. Like-named read-outs stand apart in the source and are kept apart here.

Turning to “1,1-dibenzyl-4,4-diphenyl-1λ4,4-azasilinan-2-ylium bromide [NDS 100953]”, the IC50 in test [1] (setting [2]) is 1.69 µM. Moreover, in test [1] (setting [3]), the “% inhibition (P. falciparum)” value is recorded as 94.96%. Further, in the test on T. gondii (setting [4]), the “% inhibition (T. gondii)” value is recorded as 39%.
Consider “1-benzyl-1-ethyl-4,4-diphenyl-1λ4,4-azasilinan-2-ylium iodide [NDS 100952]”, for which the IC50 is 0.33 µM in test [1] (setting [2]) and 1.24 µM in the test on T. gondii (dose response, dilution series 10 μM to 1 nM; read-out: IC50 (T gondii)). The “% inhibition (P. falciparum)” value in test [1] (setting [3]) came out at 104.01%. In the test with T. gondii (setting [4]), the “% inhibition (T. gondii)” value turned out to be 72.06%.
In the case of `c1ccc(CN2CC[Si](c3ccccc3)(c3ccccc3)CC2)cc1` [NDS 100860], the concentration for half-maximal inhibition (IC50) in test [1] (setting [5]) is 1.75 µM; in test [1] (setting [2]) it was 2.3 µM; in the test on T. gondii (read-out: IC50 (T gondii); dose response, dilution series 10 μM to 1 nM), 5.03 µM and 2.09 µM. Also, the inhibition at 10 µM in test [1] (setting [6]) was 112%; in the test with T. gondii (setting [7]), 99.4%.
Turning to `C[N+]1(Cc2ccccc2)CC[Si](c2ccccc2)(c2ccccc2)CC1` [NDS 100861], the IC50 stood at 1.64 µM in test [1] (setting [5]) and 2.39 µM in test [1] (setting [2]). Moreover, the inhibition at 10 µM in test [1] (setting [6]) was determined as 115%; in the test on T. gondii (setting [7]), 36%.
For the molecule `CC(C)=CC[N+]1(CC=C(C)C)CC[Si](c2ccccc2)(c2ccccc2)CC1` [NDS 101015, 1,1-bis(3-methylbut-2-en-1-yl)-4,4-diphenyl-1,4-azasilinan-1-ium bromide], the inhibition at 10 µM was determined as 103% in test [1] (setting [8]) and 20% in the test with T. gondii (setting [7]). For the same molecule, the IC50 is 0.48 µM in test [1] (setting [9]) and 0.29 µM in test [1] (read-out: IC50(P. falciparum), dose response, dilution series 10 μM to 1 nM, 3D7).
As to `c1ccc([Si]2(c3ccccc3)CC[N+]3(CCCCC3)CC2)cc1` [NDS 101017], the inhibition at 10 µM in test [1] (setting [6]) came out at 87.1%; in the test with T. gondii (setting [7]), 0%. For the same molecule, the IC50 in test [1] (setting [2]) is 2.07 µM and 4.98 µM.
Regarding `C=CC[N+]1(C)CC[Si](c2ccccc2)(c2ccccc2)CC1` [NDS 101039, 1-allyl-1-methyl-4,4-diphenyl-1,4-azasilinan-1-ium bromide], the figures for the inhibition at 10 µM (in test [1] (setting [8]); with T. gondii (setting [7])) were 76.2% and 17%, respectively. In addition, the IC50 in test [1] (setting [9]) is 7.11 µM.
`C[N+]1(C)CC[Si](c2ccccc2)(c2ccccc2)CC1` [NDS 101044, 1,1-dimethyl-4,4-diphenyl-1,4-azasilinan-1-ium iodide]: in test [1] (setting [5]), the IC50 was 2.46 µM. Also, the inhibition at 10 µM is 63.5% in test [1] (setting [6]) and 0% in the test on T. gondii (setting [7]).

As a reminder, the IC50 is the concentration that inhibits the measured activity by half. One may read the inhibition as the relative decrease from the control value, in per cent.
